# Measured values as given in patent US4568666A, “Carboxylalkyl peptide derivatives” (G. D. Searle & Co., priority 1984, dated 1986).
# Key:
# [1] = target: T1, Human Rheumatoid Synovial Collagenase (Homo sapiens, UniProt P03956); assay: Collagenase inhibition (procedure of Cawston and Barrett, acetyl 14C collagen); type: biochemical; details: 37° C., 16 hours, native acetyl 14C collagen, Tris HCl-CaCl2 pH 7.6
# T1 construct: from tissue
# T1 sequence (P03956 100-469): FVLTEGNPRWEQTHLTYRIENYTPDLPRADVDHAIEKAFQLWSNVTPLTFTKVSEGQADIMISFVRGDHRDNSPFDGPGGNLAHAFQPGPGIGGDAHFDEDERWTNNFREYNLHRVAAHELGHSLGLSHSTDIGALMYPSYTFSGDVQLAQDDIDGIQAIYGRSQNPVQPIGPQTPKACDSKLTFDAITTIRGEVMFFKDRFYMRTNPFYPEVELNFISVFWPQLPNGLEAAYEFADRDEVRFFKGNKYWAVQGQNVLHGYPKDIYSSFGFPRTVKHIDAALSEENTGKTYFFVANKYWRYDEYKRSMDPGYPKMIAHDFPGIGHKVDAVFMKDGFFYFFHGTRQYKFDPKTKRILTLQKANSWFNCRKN
# Description: This was determined following the procedure of Cawston and Barrett, Anal. Biochem., 99, 340-345 (1979) whereby the 1 mM of the inhibitor being tested or dilutions thereof are incubated at 37° C. for 16 hours with native collagen and collagenase (buffered with Tris HCl--CaCl2; pH 7.6). The collagen is acetyl ^14 C collagen. The samples are centrifuged to sediment undigested collagen and an aliquot of the radiactive supernatant removed for assay on a scintillation counter as a measure of hydrolysis. The collagenase activity in the presence of 1 mM inhibitor, or a dilution thereof, is compared to activity in a control devoid of inhibitor and the results reported as that inhibitor concentration effecting 50% inhibition of the collagenase.
# [2] = test system: rat model of inflammatory arthritis; assay: Rat model of inflammatory arthritis induced by Type II collagen (Trentham et al.); type: in vivo; details: prednisolone 0.625 mg/kg b.i.d.
# Description: The therapeutic effectivness is assessed in the rat model of inflammatory arthritis described by Trentham et al. (1977). In this model, the arthritis, induced by an intradermal injection of Type II collagen, generally develops in both hind paws and the progression and severity of the lesion are monitored by physical measurements of the malleolar width and ankle extensibility.
# The compound of Example II in the present specification was administered by intraperitoneal injections at 100 mg/kg twice daily for 21 days commencing seven days after the injection of the disease.
# Drugs (Example 11 or prednisolone) and vehicle were administered to groups of 10 rats each. Physical measurements on the rat paws were made weekly for four weeks and consisted of (a) the distance between the medial and lateral malleolus (malleolar width) and (b) the ankle extension which was measured by applying a standard force to th rat paw and measuring the angle formed between the flexor surface of the foot and the tibia. Evidence of a therapeutic effect was denoted by a significant reduction in malleolar width and a significant increase in ankle extension. Both measurements were carried out in apparatus designed for the purpose. Area-under-the-curve data from these time course experiments was examinaed by non-parametic statistical analysis. The prednisolone standard was given at a dose of 0.625 mg/kg b.i.d. Prednisolone was chosen as a standard since steroids are known to be effective both clinically in Rheumatoid Arthritis and in animal models of arthritis.
# [3] = arthritic rats' paws, Example 11 100 mg/kg i.p. twice daily for 21 days, area-under-the-curve data
structure (smiles),measurement,setting,value
"CNC(=O)[C@H](Cc1ccc(OC)cc1)NC(=O)[C@H](CC(C)C)N[C@H](CCNC(=O)OCc1ccccc1)C(=O)O [Example 11, N-[3-N-(Benzyloxycarbonyl)amino-1-(R)-carboxypropyl]-L-leucyl-O-methyl-L-tyrosine N-Methylamide]",IC50,[1],0.8 µM
same,"Ankle extension, percentage change from control, experiment number 1",[2]; [3],66%
same,"Ankle extension, percentage change from control, experiment number 2",[2]; [3],39%
same,"Ankle extension, percentage change from control, experiment number 3",[2]; [3],39%
same,"Malleolar width, percentage change from control, experiment number 1",[2]; [3],65%
same,"Malleolar width, percentage change from control, experiment number 2",[2]; [3],43%
same,"Malleolar width, percentage change from control, experiment number 3",[2]; [3],41%
same,"Ankle extension, percentage change from control, mean","[2]; mean of experiments 1-3, Example 11 100 mg/kg i.p. twice daily",48%
